Like-named read-outs stand apart in the source and are kept apart here.
Target: T1, Menin-MLL (Homo sapiens, UniProt O00255)
T1 construct: His-Menin (M1-L615 end); purchased BIORTUS BP9210
T1 sequence (O00255 1-615 isoform O00255-1): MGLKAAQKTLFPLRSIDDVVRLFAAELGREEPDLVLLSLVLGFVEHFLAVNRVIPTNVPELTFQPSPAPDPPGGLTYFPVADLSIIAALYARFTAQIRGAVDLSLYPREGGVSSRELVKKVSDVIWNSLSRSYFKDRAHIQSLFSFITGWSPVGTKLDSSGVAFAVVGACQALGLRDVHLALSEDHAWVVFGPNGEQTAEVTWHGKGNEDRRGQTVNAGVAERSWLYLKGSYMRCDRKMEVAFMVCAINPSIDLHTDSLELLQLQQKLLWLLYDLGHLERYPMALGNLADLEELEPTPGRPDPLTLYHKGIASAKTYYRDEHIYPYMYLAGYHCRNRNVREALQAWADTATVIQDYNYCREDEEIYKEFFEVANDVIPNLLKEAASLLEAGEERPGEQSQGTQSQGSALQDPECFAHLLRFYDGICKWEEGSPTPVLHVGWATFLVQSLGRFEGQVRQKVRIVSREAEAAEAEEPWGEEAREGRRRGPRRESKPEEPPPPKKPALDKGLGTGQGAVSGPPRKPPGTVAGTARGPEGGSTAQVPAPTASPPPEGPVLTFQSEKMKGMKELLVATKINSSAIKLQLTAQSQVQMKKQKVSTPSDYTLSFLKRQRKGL
Test: Inhibitory activity against Menin-MLL binding (fluorescence polarization)
Settings: 150 nM His-Menin, 15 nM FITC-MLL, 25°C for 60 min
Protocol: • His-Menin (M1-L615 end), purchased from BIORTUS, Catalog Number: BP9210; and • FITC-MLL4-43, purchased from GenScript, Catalog Number: C491HFF190-3/PE1324.
In a 10 µL reaction solution (20 mM HEPES, pH 7.5, 50 mM NaCl, 1 mM DTT, 0.01% BSA) containing any compound from the examples, 150 nM His-Menin was added to a 384-well plate (Corning, Model: 4514). Each concentration was set up in duplicate wells. After centrifugation at 1000 RPM for 1 min, the plate was incubated at 25°C for 15 min. Then, 15 nM […] (20 mM HEPES, pH 7.5, 50 mM NaCl, 1 mM DTT, 0.01% BSA) was added to a 384-well plate. After centrifugation at 1000 RPM for 1 min, the reaction proceeded at 25°C for 60 min. Changes in fluorescence polarization were measured using a plate reader (PerkinElmer, Envision 2104). Based on the measured signals, the binding inhibition rate of the compound at each concentration was calculated, and the IC50 (half-maximal inhibitory concentration) of the compound was determined using statistical analysis software GraphPad Prism (GraphPad Software, Inc.) by means of a nonlinear fitting formula: 4-Parameter Logistic Model or Sigmoidal Dose-Response Model: Y = Bottom + (Top−Bottom)/(1 + 10^((LogIC50−X) × Hill Slope)), [formula] in which X indicates the logarithm of compound concentration, Y indicates a fluorescence polarization mP value, and Top and Bottom indicate the maximum and minimum readouts of fluorescence polarization mP values. Table 1: Inhibitory Activity of Compounds Against Menin-MLL Binding

[1] = Menin-MLL IC50, fluorescence polarization
[2] = fluorescence polarization, read-out: Menin-MLL IC50

## CCN(C(=O)c1cc(F)ccc1-c1cc(C2CCN(C[C@H]3CC[C@H](NS(=O)(=O)CC)CC3)C2)nc2c1cnn2C)C(C)C (mixture of isomers) [Example 11, N-ethyl-5-fluoro-2-[1-methyl-6-(1-{[(1r,4r)-4-ethanesulfonamidocyclohexyl]methyl}pyrrolidin-3-yl)-1H-pyrazolo[3,4-b]pyridin-4-yl]-N-(isopropyl)benzamide]
[1]
  IC50: 0.155 µM

## CCN(C(=O)c1cc(F)ccc1-c1cc(C2CCN(C[C@H]3CC[C@H](NC(=O)OC(C)(C)C)CC3)C2)cn2cncc12)C(C)C (mixture of isomers) [Example 21, N-[(1r,4r)-4-{[3-(8-{2-[ethyl(isopropyl)aminoformyl]-4-fluorophenyl}imidazo[1,5-a]pyridin-6-yl)pyrrolidin-1-yl]methyl}cyclohexyl]tert-butyl carbamate]
[2]
  IC50: 0.0185 µM

## CCN(C(=O)c1cc(F)ccc1-c1cc(C2CCN(C[C@H]3CC[C@H](NS(=O)(=O)CC)CC3)C2)cn2cncc12)C(C)C (mixture of isomers) [Example 22, N-ethyl-5-fluoro-N-isopropyl-2-[6-(1-{[(1r,4r)-4-ethanesulfonamidocyclohexyl]methyl}pyrrolidin-3-yl)imidazo[1,5-a]pyridin-8-yl]benzamide]
[1]
  IC50: 0.025 µM

## CCN(C(=O)c1cc(F)ccc1-c1cc(C2CCN(C[C@H]3CC[C@H](NS(=O)(=O)CC)CC3)C2)cc2cncn12)C(C)C (mixture of isomers) [Example 25, N-ethyl-5-fluoro-N-isopropyl-2-[7-(1-{[(1r,4r)-4-ethanesulfonamidocyclohexyl]methyl}pyrrolidin-3-yl)imidazo[1,5-a]pyridin-5-yl]benzamide]
[1]
  IC50: 0.019 µM

## CCN(C(=O)c1cc(F)ccc1-c1cc(C2CCN(C[C@H]3CC[C@@H](NS(=O)(=O)CC)CC3)C2)cc2cncn12)C(C)C (mixture of isomers) [Example 26, N-ethyl-5-fluoro-N-isopropyl-2-[7-(1-{[(1s,4s)-4-ethanesulfonamidocyclohexyl]methyl}pyrrolidin-3-yl)imidazo[1,5-a]pyridin-5-yl]benzamide]
[1]
  IC50: 0.0445 µM

## CCN(C(=O)c1cc(F)ccc1-c1cc(C2CCN(C[C@H]3CC[C@H](NC(=O)OC(C)(C)C)CC3)C2)cn2c(C)ncc12)C(C)C (mixture of isomers) [Example 29, N-[(1r,4r)-4-{[3-(8-{2-[ethyl(isopropyl)aminoformyl]-4-fluorophenyl}-3-methylimidazo[1,5-a]pyridin-6-yl)pyrrolidin-1-yl]methyl}cyclohexyl]tert-butyl carbamate]
[2]
  IC50: 0.0105 µM

## CCN(C(=O)c1cc(F)ccc1-c1cc(C2CCN(C[C@H]3CC[C@H](NS(=O)(=O)CC)CC3)C2)cc2cnc(C)n12)C(C)C (mixture of isomers) [Example 35, N-ethyl-5-fluoro-2-[3-methyl-7-(1-{[(1r,4r)-4-ethanesulfonamidocyclohexyl]methyl}pyrrolidin-3-yl)imidazo[1,5-a]pyridin-5-yl]-N-(isopropyl)benzamide]
[1]
  IC50: 0.0395 µM

## CC(C)N(CC(F)F)C(=O)c1cc(F)ccc1-c1cc(C2CCN(CCN3CCC(NC(=O)OC(C)(C)C)CC3)C2)cc2c1cnn2C (racemic) [Example 166, N-(1-{2-[3-(4-{2-[(2,2-difluoroethyl)(isopropyl)aminoformyl]-4-fluorophenyl}-1-methyl-1H-indazol-6-yl)pyrrolidin-1-yl]ethyl}piperidin-4-yl)tert-butyl carbamate]
[2]
  IC50: 0.271 µM

## C=C1C[C@@H]2CC[C@H]1[C@@H](C(=O)N1CCC(c3cc(-c4ccc(F)cc4C(=O)N(CC)C(C)C)c4cncn4c3)CC1)N2 [Compound 39, N-ethyl-5-fluoro-2-(6-{1-[(1S,3S,4R)-5-methylene-2-azabicyclo[2.2.2]octan-3-carbonyl]piperidin-4-yl}imidazo[1,5-a]pyridin-8-yl)-N-(isopropyl)benzamide]
[2]
  IC50: 0.137 µM

## CCN(C(=O)c1cc(F)ccc1-c1cc(N2CCN(C(=O)[C@H]3N[C@@H]4CC[C@H]3C4)CC2)cn2cncc12)C(C)C [Compound 40, 2-(6-{4-[(1R,3S,4S)-2-azabicyclo[2.2.1]heptan-3-carbonyl]piperazin-1-yl}imidazo[1,5-a]pyridin-8-yl)-N-ethyl-5-fluoro-N-(isopropyl)benzamide]
[2]
  IC50: 0.083 µM

## CCN(C(=O)c1cc(F)ccc1-c1cc(C2CCN(CC3(O)CCC(NC(=O)OC(C)(C)C)CC3)C2)cn2c(C)ncc12)C(C)C (stereo not shown) [Compound 50, N-(4-{[3-(8-{2-[ethyl(isopropyl)aminoformyl]-4-fluorophenyl}-3-methylimidazo[1,5-a]pyridin-6-yl)pyrrolidin-1-yl]methyl}-4-hydroxylcyclohexyl)tert-butyl carbamate]
[2]
  IC50: 0.014 µM

## CCN(C(=O)c1cc(F)ccc1-c1cc(C2CCN(C[C@]3(F)CC[C@H](NS(=O)(=O)CC)CC3)C2)cn2c(C)ncc12)C(C)C (stereo partly shown) [Compound 51, N-ethyl-5-fluoro-2-[3-methyl-6-(1-{[(1r,4r)-4-ethanesulfonamido-1-fluorocyclohexyl]methyl}pyrrolidin-3-yl)imidazo[1,5-a]pyridin-8-yl]-N-(isopropyl)benzamide]
[1]
  IC50: 0.064 µM

## CCN(C(=O)c1cc(F)ccc1-c1cc(C2CCN(C[C@]3(F)CC[C@@H](NS(=O)(=O)CC)CC3)C2)cn2c(C)ncc12)C(C)C (stereo partly shown) [Compound 52, N-ethyl-5-fluoro-2-[3-methyl-6-(1-{[(1s,4s)-4-ethanesulfonamido-1-fluorocyclohexyl]methyl}pyrrolidin-3-yl)imidazo[1,5-a]pyridin-8-yl]-N-(isopropyl)benzamide]
[1]
  IC50: 0.0285 µM

## CCN(C(=O)c1cc(F)ccc1-c1cc(C2CCN(C[C@]3(O)CC[C@@H](NC(=O)OC(C)(C)C)CC3)C2)cc2c1cnn2C)C(C)C (stereo partly shown) [Compound 54, N-[(1s,4s)-4-{[3-(4-{2-[ethyl(isopropyl)aminoformyl]-4-fluorophenyl}-1-methyl-1H-indazol-6-yl)pyrrolidin-1-yl]methyl}-4-hydroxylcyclohexyl]tert-butyl carbamate]
[2]
  IC50: 0.105 µM

## CCN(C(=O)c1cc(F)ccc1-c1cc(C2CCN(C[C@]3(O)CC[C@@H](NS(=O)(=O)CC)CC3)C2)cc2c1cnn2C)C(C)C (stereo partly shown) [Compound 55, N-ethyl-5-fluoro-2-[1-methyl-6-(1-{[(1s,4s)-4-ethanesulfonamido-1-hydroxylcyclohexyl]methyl}pyrrolidin-3-yl)-1H-indazol-4-yl]-N-(isopropyl)benzamide]
[1]
  IC50: 0.021 µM

## CCN(C(=O)c1cc(F)ccc1-c1cc([C@H]2CCN(CC3(O)CCC(NS(=O)(=O)CC)CC3)C2)cc2c1cnn2C)C(C)C (stereo partly drawn) [Compound 55-1-2, N-ethyl-5-fluoro-2-[1-methyl-6-[(3R)-1-{[(1r,4r)-4-ethanesulfonamido-1-hydroxylcyclohexyl]methyl}pyrrolidin-3-yl]-1H-indazol-4-yl]-N-(isopropyl)benzamide]
[2]
  IC50: 0.12 µM

## CCN(C(=O)c1cc(F)ccc1-c1cc([C@@H]2CCN(C[C@]3(O)CC[C@@H](NS(=O)(=O)CC)CC3)C2)cc2c1cnn2C)C(C)C [Compound 55-2-1, N-ethyl-5-fluoro-2-[1-methyl-6-[(3S)-1-{[(1s,4s)-4-ethanesulfonamido-1-hydroxylcyclohexyl]methyl}pyrrolidin-3-yl]-1H-indazol-4-yl]-N-(isopropyl)benzamide]
[1]
  IC50: 0.343 µM

## CCN(C(=O)c1cc(F)ccc1-c1cc(N2CCC(NCC3(F)CCC(NS(=O)(=O)CC)CC3)CC2)cn2c(C)ncc12)C(C)C (stereo not shown) [Compound 57, 2-[6-(4-{[(4-ethanesulfonamido-1-fluorocyclohexyl)methyl]amino}piperidin-1-yl)-3-methylimidazo[1,5-a]pyridin-8-yl]-N-ethyl-5-fluoro-N-(isopropyl)benzamide]
[2]
  IC50: 0.107 µM

## CCN(C(=O)c1cc(F)ccc1-c1cc(N2CCN(CC3CCCCC3)CC2)cn2c(C)ncc12)C(C)C [Compound 58, 2-{6-[4-(cyclohexylmethyl)piperazin-1-yl]-3-methylimidazo[1,5-a]pyridin-8-yl}-N-ethyl-5-fluoro-N-(isopropyl)benzamide]
[2]
  IC50: 0.124 µM

Reference: patent publication EP4782453A1 (Beyang Therapeutics Co., Ltd., priority 2023, dated 2025)
